Measured values reported in ChEMBL document CHEMBL1201862, “PubChem BioAssay data set” (2004).
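96-well plates; 48 h exposure; 5 concentrations. Endpoints by linear interpolation between flanking doses. Not reached: highest tested concentration assigned. GI50: concentration for 50% inhibition of growth.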 Activity calls are given as the source filed them. No stated cut-off is given here; in the data, active = GI50 up to about 1.1 µM and inactive = higher.

How the values were obtained:
Assay in all cases: NCI anticancer screen, dose series, 48 h
A498 = system: A498
ACHN = system: ACHN
EKVX = system: EKVX
HCC 2998 = system: HCC 2998
HL-60 = system: HL-60
LXFL 529 = system: LXFL 529
M14 = system: M14
NCI-H460 = system: NCI-H460
OVCAR-3 = system: OVCAR-3
OVCAR-5 = system: OVCAR-5
OVCAR-8 = system: OVCAR-8
SF-539 = system: SF-539
SK-MEL-28 = system: SK-MEL-28
SK-MEL-2 = system: SK-MEL-2
SNB-19 = system: SNB-19
TK-10 = system: TK-10
UACC-62 = system: UACC-62
DU-145 = system: DU-145
SR = system: SR
T47D = system: T47D

Measured: GI50

O=C(CC(=O)N1N=C(n2ccc3ccccc32)CC1c1ccccc1)Nc1cccc(Cl)c1 (centres undefined)
inactive: A498 > 100 µM | ACHN > 100 µM | EKVX > 100 µM | HCC 2998 > 100 µM | HL-60 > 100 µM | LXFL 529 > 100 µM | M14 > 100 µM | NCI-H460 > 100 µM | OVCAR-3 > 100 µM | OVCAR-5 > 100 µM | OVCAR-8 > 100 µM | SF-539 > 100 µM | SK-MEL-28 > 100 µM | SK-MEL-2 > 100 µM | SNB-19 > 100 µM | TK-10 > 100 µM | UACC-62 > 100 µM

N#CCCN(c1ccc(/C=N/c2nc(-c3ccccc3)cs2)cc1)S(=O)(=O)c1ccccc1
inactive: A498 75.9 µM | EKVX 37.5 µM | HCC 2998 64.9 µM | HL-60 30.8 µM | LXFL 529 56.9 µM | M14 81.7 µM | OVCAR-3 39.8 µM | OVCAR-5 > 100 µM | OVCAR-8 > 100 µM | SF-539 > 100 µM | SK-MEL-28 85.3 µM | SK-MEL-2 86.9 µM | SNB-19 > 100 µM | TK-10 86.5 µM | UACC-62 59.2 µM

COc1ccc(OC)c(NC(=O)C2=C(C)NC(C)=C(C(=O)Nc3cc(OC)ccc3OC)C2c2ccccc2)c1
inactive: A498 > 100 µM | ACHN 30 µM | EKVX > 100 µM | HCC 2998 > 100 µM | LXFL 529 > 100 µM | M14 > 100 µM | NCI-H460 > 100 µM | OVCAR-3 > 100 µM | OVCAR-5 > 100 µM | OVCAR-8 > 100 µM | SF-539 > 100 µM | SK-MEL-28 22.6 µM | SK-MEL-2 > 100 µM | SNB-19 > 100 µM | TK-10 > 100 µM | UACC-62 > 100 µM

O=C(NN1C(=O)C(Cl)C1c1cccc(Cl)c1)c1ccccc1O (centres undefined)
inactive: A498 > 100 µM | ACHN > 100 µM | HL-60 > 100 µM | LXFL 529 > 100 µM | M14 > 100 µM | NCI-H460 > 100 µM | OVCAR-3 > 100 µM | OVCAR-8 > 100 µM | SF-539 > 100 µM | SK-MEL-28 > 100 µM | SK-MEL-2 > 100 µM | SNB-19 > 100 µM | TK-10 > 100 µM | UACC-62 > 100 µM

CC1=C(C(=O)CC(=O)C(=O)Nc2cccc(C)c2C)Sc2ccccc2N1
inactive: ACHN > 100 µM | EKVX > 100 µM | HCC 2998 > 100 µM | HL-60 > 100 µM | LXFL 529 > 100 µM | M14 > 100 µM | NCI-H460 > 100 µM | OVCAR-3 > 100 µM | OVCAR-5 > 100 µM | OVCAR-8 > 100 µM | SF-539 > 100 µM | SK-MEL-28 > 100 µM | SK-MEL-2 > 100 µM | SNB-19 > 100 µM | TK-10 > 100 µM | UACC-62 > 100 µM

O=c1[nH]cc(COCCO)c(=O)[nH]1
inactive: A498 > 100 µM | ACHN > 100 µM | EKVX > 100 µM | HL-60 > 100 µM | LXFL 529 > 100 µM | M14 > 100 µM | NCI-H460 > 100 µM | OVCAR-3 > 100 µM | OVCAR-5 > 100 µM | OVCAR-8 > 100 µM | SF-539 > 100 µM | SK-MEL-28 > 100 µM | SK-MEL-2 > 100 µM | SNB-19 > 100 µM | TK-10 > 100 µM | UACC-62 > 100 µM

CCN(CC)CCC1(C2CCCCC2)CCC(=O)NC1=O (centres undefined)
inactive: A498 > 100 µM | ACHN > 100 µM | EKVX > 100 µM | HCC 2998 > 100 µM | LXFL 529 > 100 µM | M14 > 100 µM | NCI-H460 > 100 µM | OVCAR-3 > 100 µM | OVCAR-5 > 100 µM | OVCAR-8 > 100 µM | SF-539 > 100 µM | SK-MEL-28 > 100 µM | SK-MEL-2 > 100 µM | SNB-19 > 100 µM | TK-10 > 100 µM | UACC-62 > 100 µM

O=C1NC(=O)/C(=N\c2cccc3c(=O)[nH][nH]c(=O)c23)C(c2nc3ccccc3s2)C1=O (centres undefined)
inactive: A498 > 100 µM | ACHN > 100 µM | EKVX > 100 µM | HCC 2998 89.7 µM | HL-60 > 100 µM | LXFL 529 > 100 µM | M14 > 100 µM | NCI-H460 > 100 µM | OVCAR-3 > 100 µM | OVCAR-8 > 100 µM | SK-MEL-28 > 100 µM | SK-MEL-2 > 100 µM | SNB-19 > 100 µM | TK-10 > 100 µM | UACC-62 > 100 µM

COc1ccc(C2NC(c3ccc(OC)cc3)C(C)C(=O)C2C)cc1 (centres undefined)
inactive: A498 > 100 µM | ACHN > 100 µM | EKVX 67 µM | HCC 2998 > 100 µM | HL-60 > 100 µM | LXFL 529 > 100 µM | M14 > 100 µM | NCI-H460 > 100 µM | OVCAR-3 > 100 µM | OVCAR-5 23.4 µM | OVCAR-8 > 100 µM | SF-539 > 100 µM | SK-MEL-28 > 100 µM | SK-MEL-2 > 100 µM | SNB-19 > 100 µM | TK-10 > 100 µM | UACC-62 > 100 µM

COC(=O)C1[C@H](c2cc(OC)c(OC)c(OC)c2)OC(=O)C1(C(=O)OC)C(=O)c1ccc2c(c1)OCO2 (some centres undefined)
inactive: A498 > 100 µM | ACHN > 100 µM | EKVX > 100 µM | HCC 2998 > 100 µM | HL-60 > 100 µM | LXFL 529 > 100 µM | M14 > 100 µM | NCI-H460 > 100 µM | OVCAR-3 > 100 µM | OVCAR-5 > 100 µM | OVCAR-8 > 100 µM | SF-539 > 100 µM | SK-MEL-28 > 100 µM | SNB-19 > 100 µM | TK-10 > 100 µM | UACC-62 > 100 µM

Oc1cc(O)c(Oc2cccc(O)c2O)c(O)c1
inactive: A498 > 100 µM | ACHN > 100 µM | EKVX > 100 µM | HCC 2998 > 100 µM | HL-60 99.5 µM | LXFL 529 > 100 µM | M14 > 100 µM | NCI-H460 > 100 µM | OVCAR-3 73.3 µM | OVCAR-5 > 100 µM | OVCAR-8 > 100 µM | SF-539 > 100 µM | SK-MEL-28 > 100 µM | SK-MEL-2 37.8 µM | SNB-19 > 100 µM | TK-10 > 100 µM | UACC-62 35.6 µM

Cn1cnc(N2CCCC2)c(C#N)c1=O
inactive: A498 > 100 µM | ACHN > 100 µM | DU-145 > 100 µM | EKVX > 100 µM | HCC 2998 > 100 µM | HL-60 > 100 µM | M14 > 100 µM | NCI-H460 > 100 µM | OVCAR-3 > 100 µM | OVCAR-5 > 100 µM | OVCAR-8 > 100 µM | SF-539 > 100 µM | SK-MEL-28 > 100 µM | SK-MEL-2 > 100 µM | SNB-19 > 100 µM | SR > 100 µM | T47D > 100 µM | TK-10 > 100 µM | UACC-62 > 100 µM
